Consider two molecules from PMC8214093, “Structural basis of KdpD histidine kinase binding to the second messenger c-di-AMP” (The Journal of Biological Chemistry, 2021).

Molecules are shown by their SMILES. Values joined by “and” are separate entries in the source; they are usually repeats but may differ in a detail not shown here. Equal entries are not always repeated. Bounds are passed on as bounds.

Experiment [1] deals with USPSa-WT (Staphylococcus aureus, UniProt A0A7U7EVR3). Nature of the experiment: biochemical. It counts as binding. Conditions: His6-USPSa WT, MST; for Kd: Dissociation Constant (KD) ± Standard Deviation, changes in initial fluorescence. The method, then: For labeling, the proteins were diluted to a concentration of 800 nM in binding buffer (50 mM potassium phosphate, pH 8.0, 800 mM NaCl, and 0.05% Tween 20), mixed with an equal volume of RED-Tris-NTA dye (80 nM), and incubated on ice in the dark for 30 min. […] The labeled proteins and the ligand dilutions were then mixed in a 1:1 ratio and incubated on ice in the dark for 30 min.
The samples were then loaded into Monolith standard-treated capillaries in triplicate, and the changes in fluorescence were measured with 40% LED power and 20% IR-laser power for an on-time of 20-s at 23 °C. To determine the binding affinity, the ligand-dependent changes in the intensity of the initial fluorescence, or the thermophoretic mobility, were analyzed according to the law of mass action in a standard fitting mode of MO.Affinity analysis software (version 2.3). To exclude the possibility of nonspecific binding of the ligand to the His6-tag (on USPSa) or ligand-induced USP adsorption to labware or due to aggregation, we performed His6-peptide and EDTA tests, respectively ([91]). […] In the EDTA test, the binding buffer additionally contained 50 mM EDTA to disrupt the interaction between His6-USP and the RED-Tris-NTA dye.

Experiment [2] has as its target maltose-binding protein–tagged USP. To be noted: differential radial capillary action of ligand assay, read-out: previously reported KD; cited from earlier work.
Experiment [3] has as its system untagged USPSa. The experiment can be described thus: fluorescence-based thermal shift (ThermoFluor) assay. The class given is binding, Staphylococcus aureus. To be noted: 7.5-fold molar excess of c-di-AMP; purified untagged USPSa. (In general: Differential scanning fluorimetry follows unfolding on heating by fluorescence.)
Procedure: The plates were then sealed with Microseal “B” Seal Seals (Bio-Rad Laboratories) and heated in a CFX96 real-time PCR system (Bio-Rad Laboratories) from 25 °C to 99 °C in increments of 0.5 °C. Fluorescence changes in the plate wells were monitored simultaneously with a charge-coupled device camera, utilizing excitation and emission wavelengths of 497 nm and 520 nm, respectively.
The target in experiment [4] is T1, USPMtb-WT (Mycobacterium tuberculosis, UniProt P9WGL3).
T1 construct: made in house; host or cells: E. coli C41 (DE3), pTB146, no KdpE co-expression
The experiment can be described thus: biochemical. It counts as binding.

The subject of experiment [5] is maltose-binding protein–tagged version of the USPSa Y271A mutant. Details: method as in PMID 26195599. To be noted: cited from earlier work.
Experiment [6] deals with USPSp-WT. The class given is binding, Streptococcus pneumoniae. Conditions: MST, change in thermophoretic mobility, read-out: Dissociation Constant (KD) ± Standard Deviation.
For experiment [7], the target named is USPSa2-WT (Staphylococcus aureus, UniProt Q5HK61). The experiment can be described thus: biochemical. It counts as binding. To be noted: MST, change in thermophoretic mobility, read-out: Dissociation Constant (KD) ± Standard Deviation.
Experiment [8] deals with USPSa-V310A (Staphylococcus aureus, UniProt A0A7U7EVR3, V310A). Nature of the experiment: MicroScale Thermophoresis (initial fluorescence change) nucleotide binding. Conditions: V310A mutant, MST, read-out: Dissociation Constant (KD) ± Standard Deviation. How it is done: The ligand-binding specificity of USPSa, the role of USPSa residues in c-di-AMP binding, and the c-di-AMP binding affinity of USP homologs were biochemically determined by MST, using purified WT and mutant proteins. […] For these MST experiments, WT and active-site mutants of His6-USPSa were first fluorescently labeled using a RED-Tris NTA Monolith His-Tag labeling kit (Nanotemper, Technologies, Inc). For labeling, the proteins were diluted to a concentration of 800 nM in binding buffer (50 mM potassium phosphate, pH 8.0, 800 mM NaCl, and 0.05% Tween 20), mixed with an equal volume of RED-Tris-NTA dye (80 nM), and incubated on ice in the dark for 30 min. The stock solutions of ligands (c-di-AMP, c-di-GMP, ATP, AMP, c-AMP) were serially diluted with the binding buffer in a 1:1 ratio during each dilution step. The labeled proteins and the ligand dilutions were then mixed in a 1:1 ratio and incubated on ice in the dark for 30 min.
The samples were then loaded into Monolith standard-treated capillaries in triplicate, and the changes in fluorescence were measured with 40% LED power and 20% IR-laser power for an on-time of 20-s at 23 °C. To determine the binding affinity, the ligand-dependent changes in the intensity of the initial fluorescence, or the thermophoretic mobility, were analyzed according to the law of mass action in a standard fitting mode of MO.Affinity analysis software (version 2.3). To exclude the possibility of nonspecific binding of the ligand to the His6-tag (on USPSa) or ligand-induced USP adsorption to labware or due to aggregation, we performed His6-peptide and EDTA tests, respectively ([91]). In the His6-peptide test, a control His6-peptide was used instead of USP in the binding assay described above, and if no change in initial fluorescence occurred, this confirmed the USP-specific binding of ligands. In the EDTA test, the binding buffer additionally contained 50 mM EDTA to disrupt the interaction between His6-USP and the RED-Tris-NTA dye. The complete loss of the ligand-induced initial fluorescence change in this assay confirmed that this change was neither because of protein aggregation nor because of protein adsorption to labware.
The Ka values of WT USPSa for c-di-AMP or AMP were set to 100% relative affinity, and the binding affinities of the other nucleotides (Fig. 1C), or USPSa mutants (Fig. 4E), or USP homologs (Fig. 6, B and C) were depicted as percent values compared with the values of the WT USPSa.
(In general: In MST a laser heats a spot of the sample, and binding alters the fluorescence response.)

Broadly, the Kd is the free concentration of one partner at which half of the binding sites on the other are occupied at equilibrium, for simple one-to-one binding. Take `Nc1ncnc2c1ncn2[C@@H]1O[C@H](COP(=O)(O)O)[C@@H](O)[C@H]1O` [AMP]: in experiment [1], binding was put at a Kd of 2650 ± 1160 µM and the “binding affinity, fold lower than that of c-di-AMP” value was > 5000 fold.

In the case of `Nc1ncnc2c1ncn2[C@@H]1O[C@@H]2COP(=O)(O)O[C@H]3[C@@H](O)[C@H](n4cnc5c(N)ncnc54)O[C@@H]3COP(=O)(O)O[C@H]2[C@H]1O` [c-di-AMP, cyclic-di-adenosine monophosphate], the Kd in experiment [2] was 2 ± 0.18 µM; in experiment [4], 666 ± 168 µM; in experiment [1], 0.5 µM and 0.53 µM; in experiment [6], 67.5 ± 13 µM; in experiment [7], 125 ± 15 µM; in experiment [8], 1.71 ± 0.42 µM. Also, the “increase of melting temperature of USPSa” value in experiment [3] stood at 10 °C. The “c-di-AMP binding in vitro (in words)” value in experiment [5] is “deficient in c-di-AMP binding”.
